These results are taken from PMC8510274, “Plasma-Induced Oxidation Products of (–)-Epigallocatechin Gallate with Digestive Enzymes Inhibitory Effects” (Molecules, 2021).

Like-named read-outs stand apart in the source and are kept apart here. A value given as a limit tells only on which side of the number the result lay.

A word on the IC50: it is the concentration that gives 50% inhibition.

Assay [1] addresses T1, α-glucosidase (EC 3.2.1.20) from Saccharomyces cerevisiae (Saccharomyces cerevisiae, UniProt P53341).
T1 construct: purchased Sigma-Aldrich
The experiment in a line: biochemical. Here is the method: (§1) The specific optical rotation was obtained using a JASCO P-2000 polarimeter (JASCO, Tokyo, Japan), and fast atom bombardment mass spectrometry (FABMS) was recorded on a JMS-700 spectrometer (JEOL, Tokyo, Japan) in negative mode.
The α-glucosidase inhibitory activities of the compounds were evaluated using a minor modification of a previously reported method. The reaction mixture consisted of an enzyme solution (0.5 unit of α-glucosidase, 90 μL), a substrate (1 mM p-NPG, 100 μL) in a 0.1 M phosphate buffer (pH 7.0), and the isolated compounds, and positive control in 5% DMSO (10 μL). After incubation at 37 °C for 30 min, 0.1 M NaOH was added to quench the reaction.
(§2) The α-amylase inhibition assay was performed using a previously reported method with slight modifications. Porcine pancreatic α-amylase (1 unit, 90 µL) was incubated with the sample, and the positive control, at various concentrations. The reaction was started by adding 100 µL of a 1% potato starch solution, in 20 mM phosphate buffer (pH 6.9), to the reaction mixture. […] The mixture was then boiled at 80 °C for 10 min in a water bath and then cooled on ice. The α-amylase inhibitory activity was measured at 540 nm using an ELISA reader. Enzyme inhibition (%) = [1−(A1/A0)] × 100(1) where A0 and A1 are the absorbance of the control and sample, respectively. The α-glucosidase and α-amylase inhibition (%) was calculated, and the half-maximal inhibitory concentration (IC50) was determined by linear regression analysis of the inhibitory activities under the assay conditions.

Assay [2] has as its target T2, Porcine pancreatic α-amylase (Sus scrofa, UniProt P00690).
T2 construct: purchased Sigma-Aldrich; host or cells: porcine pancreas
T2 sequence (P00690 16-511): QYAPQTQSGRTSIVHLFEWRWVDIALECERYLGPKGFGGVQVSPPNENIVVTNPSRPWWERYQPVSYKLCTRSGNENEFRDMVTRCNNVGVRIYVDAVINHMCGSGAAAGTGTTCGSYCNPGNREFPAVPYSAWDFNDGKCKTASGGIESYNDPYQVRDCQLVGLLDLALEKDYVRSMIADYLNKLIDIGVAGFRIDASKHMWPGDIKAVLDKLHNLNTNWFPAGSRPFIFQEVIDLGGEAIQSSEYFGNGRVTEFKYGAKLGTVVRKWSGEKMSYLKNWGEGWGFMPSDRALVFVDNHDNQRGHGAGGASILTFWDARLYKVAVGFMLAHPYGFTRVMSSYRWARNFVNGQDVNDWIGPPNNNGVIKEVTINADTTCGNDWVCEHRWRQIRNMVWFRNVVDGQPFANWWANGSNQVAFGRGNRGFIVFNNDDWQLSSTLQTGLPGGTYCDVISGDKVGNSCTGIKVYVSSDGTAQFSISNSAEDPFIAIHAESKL
As to the kind of experiment: α-amylase inhibition assay (potato starch, DNS reagent). The assay is classed as biochemical. Here is the method:
as §1, §2

Where [3] appears, read: isolated compounds, triplicate, acarbose positive control, read-out: IC50 Value α-Amylase (converted).
[4] abbreviates: IC50 Value α-Glucosidase, isolated compounds, triplicate, acarbose positive control.

T1 sequence (P53341 whole entry): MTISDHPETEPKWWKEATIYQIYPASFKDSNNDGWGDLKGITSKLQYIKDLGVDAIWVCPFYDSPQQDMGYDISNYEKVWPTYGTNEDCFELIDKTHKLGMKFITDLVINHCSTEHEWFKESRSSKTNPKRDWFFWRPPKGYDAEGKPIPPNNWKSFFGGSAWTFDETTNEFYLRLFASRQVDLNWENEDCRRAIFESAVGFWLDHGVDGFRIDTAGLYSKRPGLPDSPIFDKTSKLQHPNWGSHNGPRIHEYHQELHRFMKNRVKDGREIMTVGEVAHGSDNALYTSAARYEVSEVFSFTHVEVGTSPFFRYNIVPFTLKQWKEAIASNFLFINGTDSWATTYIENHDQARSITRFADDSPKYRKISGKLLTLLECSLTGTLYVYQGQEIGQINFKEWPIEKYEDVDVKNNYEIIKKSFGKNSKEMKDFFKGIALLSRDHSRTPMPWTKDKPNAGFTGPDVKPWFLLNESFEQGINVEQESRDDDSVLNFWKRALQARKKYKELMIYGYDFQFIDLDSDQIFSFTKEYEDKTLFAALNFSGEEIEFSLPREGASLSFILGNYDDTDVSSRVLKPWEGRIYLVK

With `O=C(O[C@@H]1Cc2c(O)cc(O)cc2O[C@@H]1C1=CC(=O)C2(O)C3C([C@H]4Oc5cc(O)cc(O)c5C[C@H]4OC(=O)c4cc(O)c(O)c(O)c4)=CC(=O)C4(O)C1C2(O)OC34O)c1cc(O)c(O)c(O)c1` (stereo partly shown) [Compound 1, EGCG quinone dimer A], the IC50 in assay [1] (read-out: IC50 Value α-Glucosidase) is 15.9 ± 0.3 µM; in assay [2] (setting [3]), 18.7 ± 0.3 µM.
On to `O=C(O[C@@H]1Cc2c(O)cc(O)cc2O[C@@H]1C1=CC(=O)[C@]2(O)C(=O)c3c(cc(O)c(O)c3O)[C@H]12)c1cc(O)c(O)c(O)c1` [Compound 2, theacitrinin A], for which the half-inhibitory concentration (IC50) in assay [1] (setting [4]) was found to be 20.7 ± 0.5 µM; in assay [2] it was 25.3 ± 0.6 µM.
On the same counts, the results for `O=C(O)c1cc(O)c(O)c(O)c1` [Compound 3, gallic acid] are above 300 µM and above 300 µM.
For `O=C(O[C@@H]1Cc2c(O)cc(O)cc2O[C@@H]1c1cc(O)c(O)c(O)c1)c1cc(O)c(O)c(O)c1` [EGCG, (−)-Epigallocatechin gallate, reference compound], the half-inhibitory concentration (IC50) in assay [1] (setting [4]) is 97.2 ± 1.2 µM; in assay [1] (IC50 Value α-Glucosidase, plasma irradiation time 0 min (control, parent EGCG)) it was 97.1 µM; in assay [2] (setting [3]), 75.5 ± 1.3 µM; in assay [2] (plasma irradiation time 0 min (control, parent EGCG), read-out: IC50 Value α-Amylase (converted)), 75.3 µM.
